Patent US12171230B2, “Herbicidal compositions” (Bayer Aktiengesellschaft, priority 2018, dated 2024)

What was measured:
Assay type in all cases: in vivo
Lolium rigidum [1] = assay: Post-emergence herbicidal action against Lolium rigidum
Matricaria inodora = assay: Post-emergence herbicidal action against Matricaria inodora; conditions: for Herbicidal action: 450 g a.i./ha
Phalaris minor [2] = assay: Post-emergence herbicidal action against Phalaris minor
Galium aparine = assay: Post-emergence herbicidal action against Galium aparine
Protocol: (§1) When the observed efficacies exceed the formal sum total of the values of the tests with individual applications, they also exceed the expected value according to Colby, which is calculated using the formula below and is likewise regarded as an indication of synergism (cf. S. R. Colby; in Weeds 15 (1967) p. 20 to 22): E^C=A+B−([…])
(§2) Here: • A=efficacy of the active compound (A) in % at an application rate of a g a.i./ha; • B=efficacy of the active compound (B) in % at an application rate of b g a.i./ha; • E^C=expected value of the effect of the combination (A)+(B) in % at the combined application rate a+b g a.i./ha.
(§3) Seeds or rhizome pieces of mono- and dicotyledonous weeds are placed in sandy loam in pots, covered with soil and grown in a greenhouse under good growth conditions (temperature, air humidity, water supply). Three weeks after sowing, the test plants were treated at the three-leaf stage with the compositions according to the invention. The compositions according to the invention formulated as spray powders or as emulsion concentrates were sprayed onto the green plant parts in various dosages with an application rate of 300 to 800 l/ha of water (equivalent). After the test plants have been left to stand in the greenhouse under optimal growth conditions for about 3 to 4 weeks, the action of the preparations is scored visually in comparison to untreated controls. The compositions according to the invention also have good post-emergence herbicidal activity against a broad spectrum of economically important gramineous and broadleaf weeds.

Viola tricolor [3] = assay: Post-emergence herbicidal action against Viola tricolor
Bromus sterilis [4] = assay: Post-emergence herbicidal action against Bromus sterilis; conditions: 14 DAT; 50 g a.i./ha
Centaurea cyano = assay: Post-emergence herbicidal action against Centaurea cyano
Protocol: Seeds or rhizome pieces of mono- and dicotyledonous weeds are placed in sandy loam in pots, covered with soil and grown in a greenhouse under good growth conditions (temperature, air humidity, water supply). Three weeks after sowing, the test plants were treated at the three-leaf stage with the compositions according to the invention. The compositions according to the invention formulated as spray powders or as emulsion concentrates were sprayed onto the green plant parts in various dosages with an application rate of 300 to 800 l/ha of water (equivalent).

Poa annua = assay: Post-emergence herbicidal action against Poa annua; conditions: for Herbicidal action: 14 DAT
Protocol: as §1, §2, §3

Lolium rigidum [5] = assay: Post-emergence herbicidal action against Lolium rigidum; remark: listed apart in the source
Bromus sterilis [6] = assay: Post-emergence herbicidal action against Bromus sterilis
Alopecurus myosuroides = assay: Post-emergence herbicidal action against Alopecurus myosuroides
[7] = tested on: Lolium rigidum (resistant biotype); assay: Post-emergence herbicidal action against Lolium rigidum (resistant biotype)
Phalaris minor [8] = assay: Post-emergence herbicidal action against Phalaris minor; remark: listed apart in the source
Viola tricolor [9] = assay: Post-emergence herbicidal action against Viola tricolor; conditions: 5 g of a.i./ha
Lamium purpureum = assay: Post-emergence herbicidal action against Lamium purpureum; conditions: 45 g of a.i./ha
Protocol: as §1, §2, §3

CP(=O)(O)CCC(N)C(=O)O (stereo not drawn) [(7.4) Glufosinate] gave a Herbicidal action (Lolium rigidum [1]; 14 DAT, 150 g a.i./ha) of 50%, a Herbicidal action (Lolium rigidum [1]; 14 DAT, resistant biotype, 150 g a.i./ha) of 30% and a Herbicidal action (Lolium rigidum [1]; 28 DAT, 150 g a.i./ha) of 30%. For the same compound, the Herbicidal action (Lolium rigidum [1]; 28 DAT, resistant biotype, 150 g a.i./ha) was 30%, the Herbicidal action (Lolium rigidum [1]; 28 DAT, resistant biotype, 450 g a.i./ha) was 50% and the Herbicidal action (Matricaria inodora; 14 DAT) was 90%. For the same compound, the Herbicidal action (Matricaria inodora; 28 DAT) was 85%, the Herbicidal action (Phalaris minor [2]; 14 DAT, 50 g a.i./ha) was 0% and the Herbicidal action (Phalaris minor [2]; 14 DAT, 150 g a.i./ha) was 30%. The Herbicidal action (Phalaris minor [2]; 28 DAT, 50 g a.i./ha) was 0%, the Herbicidal action (Phalaris minor [2]; 28 DAT, 150 g a.i./ha) was 10% and the Herbicidal action (Phalaris minor [2]; 28 DAT, 450 g a.i./ha) was 30%. For the same compound, the Herbicidal action (Galium aparine; 28 DAT, 50 g a.i./ha) was 0%, the Herbicidal action (Viola tricolor [3]; 14 DAT, 150 g a.i./ha) was 80% and the Herbicidal action (Viola tricolor [3]; 28 DAT, 50 g a.i./ha) was 20%. It also gave a Herbicidal action (Viola tricolor [3]; 28 DAT, 150 g a.i./ha) of 50%, a Herbicidal action (Viola tricolor [3]; 28 DAT, 450 g a.i./ha) of 60% and a Herbicidal action (Bromus sterilis [4]) of 0%. It also gave a Herbicidal action (Centaurea cyano; 14 DAT, 50 g a.i./ha) of 30%, a Herbicidal action (Centaurea cyano; 28 DAT, 450 g a.i./ha) of 60% and a Herbicidal action (Poa annua; 50 g a.i./ha) of 10%. The Herbicidal action (Poa annua; 150 g a.i./ha) was 30% and the Herbicidal action (Poa annua; 450 g a.i./ha) was 40%.

With Cc1nn(-c2cc(CC(Cl)C(=O)O)c(Cl)cc2F)c(=O)n1C(F)F (stereo not drawn) [(B4.8) Carfentrazone] the “Herbicidal action in [%] 14 DAT against Matricaria inodora” value (Matricaria inodora; 5 g of a.i./ha) was 25%, the “Herbicidal action in [%] 28 DAT against Lolium rigidum” value (Lolium rigidum [5]; 15 g of a.i./ha) was 0% and the “Herbicidal action in [%] 28 DAT against Lolium rigidum” value (Lolium rigidum [5]; 45 g of a.i./ha) was 20%. The “Herbicidal action in [%] 14 DAT against Bromus sterilis” value (Bromus sterilis [6]; 15 g of a.i./ha) was 20%, the “Herbicidal action in [%] 28 DAT against Bromus sterilis” value (Bromus sterilis [6]; 15 g of a.i./ha) was 15% and the “Herbicidal action in [%] 14 DAT against Bromus sterilis” value (Bromus sterilis [6]; 45 g of a.i./ha) was 30%. For the same compound, the “Herbicidal action in [%] 28 DAT against Bromus sterilis” value (Bromus sterilis [6]; 45 g of a.i./ha) was 35%, the “Herbicidal action in [%] 28 DAT against Galium aparine” value (Galium aparine; 5 g of a.i./ha) was 70% and the “Herbicidal action in [%] 28 DAT against Galium aparine” value (Galium aparine; 15 g of a.i./ha) was 80%. The “Herbicidal action in [%] 14 DAT against Alopecurus myosuroides” value (Alopecurus myosuroides; 5 g of a.i./ha) was 0%, the “Herbicidal action in [%] 14 DAT against Alopecurus myosuroides” value (Alopecurus myosuroides; 15 g of a.i./ha) was 0% and the “Herbicidal action in [%] 28 DAT against Alopecurus myosuroides” value (Alopecurus myosuroides; 15 g of a.i./ha) was 0%. For the same compound, the “Herbicidal action in [%] 14 DAT against Alopecurus myosuroides” value (Alopecurus myosuroides; 15 g of a.i./ha, second 14 DAT block) was 15%, the “Herbicidal action in [%] 14 DAT against Alopecurus myosuroides” value (Alopecurus myosuroides; 45 g of a.i./ha) was 25% and the “Herbicidal action in [%] 28 DAT against Alopecurus myosuroides” value (Alopecurus myosuroides; 45 g of a.i./ha) was 20%. For the same compound, the “Herbicidal action in [%] 14 DAT against Alopecurus myosuroides” value (Alopecurus myosuroides; 45 g of a.i./ha, second 14 DAT block) was 35%, the “Herbicidal action in [%] 14 DAT against Lolium rigidum (resistant biotype)” value ([7]; 15 g of a.i./ha) was 10% and the “Herbicidal action in [%] 28 DAT against Lolium rigidum (resistant biotype)” value ([7]; 15 g of a.i./ha) was 0%. For the same compound, the “Herbicidal action in [%] 14 DAT against Lolium rigidum (resistant biotype)” value ([7]; 45 g of a.i./ha) was 25%, the “Herbicidal action in [%] 28 DAT against Lolium rigidum (resistant biotype)” value ([7]; 45 g of a.i./ha) was 20% and the “Herbicidal action in [%] 14 DAT against Phalaris minor” value (Phalaris minor [8]; 15 g of a.i./ha) was 15%. For the same compound, the “Herbicidal action in [%] 28 DAT against Phalaris minor” value (Phalaris minor [8]; 15 g of a.i./ha) was 0%, the “Herbicidal action in [%] 14 DAT against Phalaris minor” value (Phalaris minor [8]; 45 g of a.i./ha) was 20% and the “Herbicidal action in [%] 28 DAT against Phalaris minor” value (Phalaris minor [8]; 45 g of a.i./ha) was 10%. The “Herbicidal action in [%] 28 DAT against Viola tricolor” value (Viola tricolor [9]) was 80%, the “Herbicidal action in [%] 28 DAT against Lamium purpureum L.” value (Lamium purpureum) was 80% and the “Herbicidal action in [%] 14 DAT against Poa annua L.” value (Poa annua; 5 g of a.i./ha) was 0%. For the same compound, the “Herbicidal action in [%] 14 DAT against Poa annua L.” value (Poa annua; 15 g of a.i./ha) was 0%, the “Herbicidal action in [%] 28 DAT against Poa annua L.” value (Poa annua; 15 g of a.i./ha) was 0% and the “Herbicidal action in [%] 14 DAT against Poa annua L.” value (Poa annua; 45 g of a.i./ha) was 10%. For the same compound, the “Herbicidal action in [%] 28 DAT against Poa annua L.” value (Poa annua; 45 g of a.i./ha) was 20%.
